From PMC10866072, “Design, synthesis, molecular modelling and biological evaluation of novel 6-amino-5-cyano-2-thiopyrimidine derivatives as potent anticancer agents against leukemia and apoptotic inducers” (Journal of Enzyme Inhibition and Medicinal Chemistry, 2024)

What was measured:
[1] = system: NCI-H23; type: cell-based
[2] = system: NCI-H460; type: cell-based
[3] = system: HCC-2998; type: cell-based
[4] = system: HCT-15; type: cell-based
[5] = system: HT29; type: cell-based
[6] = system: KM12; type: cell-based
[7] = system: SW-620; type: cell-based
[8] = system: SF-539; type: cell-based
[9] = system: SNB-75; type: cell-based
[10] = system: LOX IMVI; type: cell-based
[11] = system: M14; type: cell-based
[12] = system: SK-MEL-5; type: cell-based
[13] = system: UACC-62; type: cell-based
[14] = system: OVCAR-5; type: cell-based
[15] = system: NCI/ADR-RES; type: cell-based
[16] = system: SK-OV-3; type: cell-based
[17] = system: ACHN; type: cell-based
[18] = system: UO-31; type: cell-based
[19] = system: DU-145; type: cell-based
[20] = system: MCF7; type: cell-based
[21] = system: HS 578T; type: cell-based
[22] = system: BT-549; type: cell-based
[23] = system: T-47D; type: cell-based
[24] = target: T1, PI3Kδ (Homo sapiens, UniProt O00329); assay: PI3 Kinase Activity/Inhibitor Assay Kit; type: biochemical; details: mean of two independent replicates ± SD
T1 construct: purchased Millipore Corporation 17-493 (assay kit)
Experimental: In vitro PI3 kinases inhibitory activity assay
All buffers, working standards and samples were prepared.
A total of 5 μl/well 5X kinase reaction buffer was added following the addition of the substrate, then distilled water was added to fill up to 25 μl. After incubation for 1 h at room temperature, 25 μl of biotinylated PIP3/EDTA working solution was added to all wells except the buffer control. Instead, 25 μl tris-buffered saline (TBS) was added to the buffer control wells. A general receptor phosphoinsitides -1 working solution was added to all wells then, was incubated for 1 h at room temperature. After incubation, all wells were washed with 200 μl 1X TBS -Tween followed by addition of 50 μl (horseradish peroxide as econjugated streptavidin) SA -HRP then were incubated for 1 h at room temperature. All wells were washed using 100 μl 1X TBS -Tween and TBS followed by addition of 100 μl of substrate 3,3’,5,5’-tetramethylbenzidine and kept in dark for 5–20 min.

[25] = MTT cytotoxicity on normal cells; type: cell-based; details: human, WI-38 cells (normal lung fibroblasts), WI-38 normal cells, mean ± SD of three experiments, read-out: IC50 (cytotoxic activity)
Experimental: The American Type Culture Collection provided WI-38 cells (normal lung cells). The cells were grown in DMEM with 10% heat-inactivated FBS (Hyclone), 10 µg/ml of insulin (Sigma), and 1% penicillin-streptomycin. The remaining chemicals and reagents were all from Sigma or Invitrogen. The MTT test was used to evaluate cytotoxicity, as described previously. Graph pad Prism software (San Diego, CA) was used to estimate the 50% inhibitory concentration (IC50) from dose response curve graphic plots for each conc.

[26] = system: CNS Cancer cell lines; assay: NCI-60 five-dose, subpanel
Excerpt: Furthermore, the average sensitivity of all cell lines to the compound is termed as the full panel mean graph midpoints (MG-MID). The complete panel mean graph midpoints refers to the average sensitivity of all cell lines to the chemical (MG-MID). A measure of a compound’s selectivity for a given cell line is the ratio created by dividing the full panel mean graph midpoints (MG-MID) concentration by the individual subpanel MG-MID concentrations (obtained as the average sensitivity of all the cell lines in a given subpanel to the test compound).
(§1) Assessment of selectivity of a compound depends on the ratio obtained by dividing the full panel MID ^a by their individual subpanel MID ^b (µM) where MID^a is the average sensitivity of all cell lines towards the test agent (µM).

[27] = system: Renal cancer cell lines; assay: NCI-60 five-dose, subpanel
Excerpt: (§2) A measure of a compound’s selectivity for a given cell line is the ratio created by dividing the full panel mean graph midpoints (MG-MID) concentration by the individual subpanel MG-MID concentrations (obtained as the average sensitivity of all the cell lines in a given subpanel to the test compound).
as §1

[28] = system: Breast cancer cell lines; assay: NCI-60 five-dose, subpanel
Excerpt: as §2, §1

[29] = Homo sapiens, five-dose, read-out: LC50 (the source's name)
[30] = Homo sapiens, one dose 10^-5 M, 48 h, read-out: % growth
[31] = Homo sapiens, one dose 10^-5 M, 48 h
[32] = Homo sapiens, read-out: GI50 Subpanel MID^b

T1 sequence (O00329 whole entry): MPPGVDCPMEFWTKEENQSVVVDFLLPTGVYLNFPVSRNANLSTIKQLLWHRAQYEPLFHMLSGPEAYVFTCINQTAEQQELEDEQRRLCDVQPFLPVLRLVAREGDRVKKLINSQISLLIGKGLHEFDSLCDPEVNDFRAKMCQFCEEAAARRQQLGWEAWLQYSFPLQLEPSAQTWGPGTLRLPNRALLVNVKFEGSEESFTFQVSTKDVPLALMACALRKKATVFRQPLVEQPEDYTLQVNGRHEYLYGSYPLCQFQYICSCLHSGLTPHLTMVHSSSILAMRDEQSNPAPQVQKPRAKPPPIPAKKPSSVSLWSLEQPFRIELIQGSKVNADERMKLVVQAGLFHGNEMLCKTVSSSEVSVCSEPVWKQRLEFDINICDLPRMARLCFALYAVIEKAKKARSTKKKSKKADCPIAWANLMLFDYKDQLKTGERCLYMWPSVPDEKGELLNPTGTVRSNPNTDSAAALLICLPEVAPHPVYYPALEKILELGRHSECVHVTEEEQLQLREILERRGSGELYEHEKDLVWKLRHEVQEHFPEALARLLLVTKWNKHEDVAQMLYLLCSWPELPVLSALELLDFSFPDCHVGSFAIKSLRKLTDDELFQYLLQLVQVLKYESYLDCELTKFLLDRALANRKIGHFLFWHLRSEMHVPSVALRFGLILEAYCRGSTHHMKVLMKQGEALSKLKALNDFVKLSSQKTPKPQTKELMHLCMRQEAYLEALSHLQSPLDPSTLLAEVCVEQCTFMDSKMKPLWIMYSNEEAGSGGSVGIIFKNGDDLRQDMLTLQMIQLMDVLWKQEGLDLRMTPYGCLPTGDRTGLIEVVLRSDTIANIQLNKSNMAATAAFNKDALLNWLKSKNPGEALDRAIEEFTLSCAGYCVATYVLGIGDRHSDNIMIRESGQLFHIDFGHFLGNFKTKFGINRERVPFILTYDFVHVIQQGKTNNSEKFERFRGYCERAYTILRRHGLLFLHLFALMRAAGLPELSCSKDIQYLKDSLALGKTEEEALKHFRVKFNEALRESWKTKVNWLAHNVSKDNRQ
T1 sequence (P27986 whole entry partner): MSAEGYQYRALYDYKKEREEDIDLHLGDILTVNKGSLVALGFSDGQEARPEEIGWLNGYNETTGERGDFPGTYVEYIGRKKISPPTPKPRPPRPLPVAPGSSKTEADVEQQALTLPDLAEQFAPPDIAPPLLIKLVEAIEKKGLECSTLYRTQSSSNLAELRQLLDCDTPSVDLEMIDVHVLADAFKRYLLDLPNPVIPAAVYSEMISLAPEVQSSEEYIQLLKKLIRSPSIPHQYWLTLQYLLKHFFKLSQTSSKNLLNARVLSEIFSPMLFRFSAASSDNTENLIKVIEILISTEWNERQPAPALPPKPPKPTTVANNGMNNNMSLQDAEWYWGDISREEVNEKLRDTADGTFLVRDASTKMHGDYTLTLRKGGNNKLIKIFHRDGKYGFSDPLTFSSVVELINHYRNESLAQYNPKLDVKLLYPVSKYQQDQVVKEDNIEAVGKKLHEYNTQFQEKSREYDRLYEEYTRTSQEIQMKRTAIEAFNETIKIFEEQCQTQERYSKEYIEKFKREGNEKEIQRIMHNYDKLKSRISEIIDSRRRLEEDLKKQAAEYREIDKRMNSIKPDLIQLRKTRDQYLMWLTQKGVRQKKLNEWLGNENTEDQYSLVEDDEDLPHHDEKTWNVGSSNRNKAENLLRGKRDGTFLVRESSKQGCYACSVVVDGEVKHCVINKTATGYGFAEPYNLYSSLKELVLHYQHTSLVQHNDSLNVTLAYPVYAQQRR

## N#Cc1c(N)nc(S)nc1-c1ccc(Cl)cc1Cl [Compound 1c, 4-Amino-6–(2,4-dichlorophenyl)-2-mercaptopyrimidine-5-carbonitrile]
[1]; Homo sapiens, five-dose
  GI50: 13.1 µM
[1]; [29]
  CC50: 60.9 µM
[1]; [30]
  activity at 10 µM: 76.1%
[1]; five-dose
  TGI: 28.30 µM
[2]; Homo sapiens, five-dose
  GI50: 22.1 µM
[2]; [29]
  CC50: > 100 µM
[2]; [30]
  activity at 10 µM: 82.6%
[2]; five-dose
  TGI: 56.80 µM
[3]; Homo sapiens, five-dose
  GI50: 13 µM
[3]; [29]
  CC50: 51.5 µM
[3]; [31]
  % growth at 10 µM: 83.3%
[3]; five-dose
  TGI: 25.90 µM
[4]; Homo sapiens, five-dose
  GI50: 0.08 µM
[4]; [29]
  CC50: 97.9 µM
[4]; [30]
  activity at 10 µM: 10.9%
[4]; five-dose
  TGI: 17.90 µM
[5]; Homo sapiens, HT-29, five-dose
  GI50: 13.8 µM
[5]; Homo sapiens, HT-29, five-dose, read-out: LC50 (the source's name)
  CC50: 68.9 µM
[5]; Homo sapiens, HT-29, one dose 10^-5 M, 48 h
  % growth at 10 µM: 24.7%
[5]; five-dose
  TGI: 30.80 µM
[6]; Homo sapiens, five-dose
  GI50: 19 µM
  LC50: 80.1 µM
[6]; [31]
  % growth at 10 µM: 49.5%
[6]; five-dose
  TGI: 39.00 µM
[7]; Homo sapiens, five-dose
  GI50: 12 µM
  LC50: 78.6 µM
[7]; [31]
  % growth at 10 µM: 45.7%
[7]; five-dose
  TGI: 30.70 µM
[8]; Homo sapiens, five-dose
  GI50: 10.8 µM
[8]; [29]
  CC50: 52.4 µM
[8]; [31]
  % growth at 10 µM: 39.9%
[8]; five-dose
  TGI: 23.80 µM
[9]; Homo sapiens, five-dose
  GI50: 4.9 µM
  LC50: 79.9 µM
[9]; [31]
  % growth at 10 µM: 36.5%
[9]; five-dose
  TGI: 25.50 µM
[10]; Homo sapiens, five-dose
  GI50: 1.1 µM
[10]; [29]
  CC50: 40 µM
[10]; [30]
  activity at 10 µM: -49.2%
[10]; five-dose
  TGI: 15.10 µM
[10]; one dose 10^-5 M, 48 h
  % growth: -49.21%
[11]; Homo sapiens, five-dose
  GI50: 2.42 µM
[11]; [29]
  CC50: 93.7 µM
[11]; [31]
  % growth at 10 µM: 49.8%
[11]; five-dose
  TGI: 28.00 µM
[12]; Homo sapiens, five-dose
  GI50: 5.56 µM
[12]; [29]
  CC50: 45 µM
[12]; [30]
  activity at 10 µM: 58.1%
[12]; five-dose
  TGI: 19.50 µM
[13]; Homo sapiens, five-dose
  GI50: 13.8 µM
[13]; [29]
  CC50: 57.6 µM
[13]; [31]
  % growth at 10 µM: 62.7%
[13]; five-dose
  TGI: 28.20 µM
[14]; Homo sapiens, five-dose
  GI50: 16.4 µM
[14]; [29]
  CC50: 63.2 µM
[14]; [31]
  percent cell growth at 10 µM: 93.5%
[14]; five-dose
  TGI: 32.20 µM
[15]; Homo sapiens, five-dose
  GI50: 0.7 µM
[15]; [29]
  CC50: > 100 µM
[15]; [31]
  cell growth percent at 10 µM: 37.9%
[15]; five-dose
  TGI: 26.20 µM
[16]; Homo sapiens, five-dose
  GI50: 26.3 µM
  LC50: > 100 µM
[16]; [31]
  % growth at 10 µM: 126%
[16]; five-dose
  TGI: 62.60 µM
[17]; Homo sapiens, five-dose
  GI50: 16.5 µM
[17]; [29]
  CC50: 62.1 µM
[17]; [31]
  % growth at 10 µM: 19.6%
[17]; five-dose
  TGI: 32.00 µM
[18]; Homo sapiens, UO-31, 48 h, one dose 10^-5 M, 48 h
  % cell growth at 10 µM: 63.5%
[18]; Homo sapiens, five-dose
  GI50: 14.7 µM
[18]; [29]
  CC50: 53.6 µM
[18]; five-dose
  TGI: 28.10 µM
[19]; Homo sapiens, five-dose
  GI50: 14.9 µM
  LC50: 57.4 µM
[19]; [31]
  % growth at 10 µM: 51.3%
[19]; five-dose
  TGI: 29.20 µM
[20]; Homo sapiens, five-dose
  GI50: 0.12 µM
[20]; [29]
  CC50: > 100 µM
[20]; [30]
  activity at 10 µM: 31.6%
[20]; five-dose
  TGI: 31.10 µM
[21]; Homo sapiens, five-dose, HS 578 T
  GI50: 18.8 µM
[21]; Homo sapiens, five-dose, HS 578 T, read-out: LC50 (the source's name)
  CC50: > 100 µM
[21]; Homo sapiens, one dose 10^-5 M, 48 h, HS 578T, read-out: % growth
  activity at 10 µM: 75.3%
[21]; five-dose, HS 578 T
  TGI: 92.60 µM
[22]; Homo sapiens, five-dose
  GI50: 14.9 µM
[22]; [29]
  CC50: 62.7 µM
[22]; [31]
  % cell growth at 10 µM: 42.1%
[22]; five-dose
  TGI: 30.50 µM
[23]; Homo sapiens, T47D, five-dose
  GI50: 9.87 µM
[23]; Homo sapiens, T47D, five-dose, read-out: LC50 (the source's name)
  CC50: > 100 µM
[23]; Homo sapiens, T47D, one dose 10^-5 M, 48 h, read-out: % growth
  activity at 10 µM: 54.5%
[23]; five-dose
  TGI: 32.30 µM
[24]
  IC50: 0.0034 ± 0.004 µM
[25]
  IC50: 43.6 ± 1.2 µM
[26]; CNS cancer
  Selectivity ratio (full panel MID^a / subpanel MID^b, GI50 level): 1.04
[26]; [32]
  GI50: 12.4 µM
[27]; [32]
  GI50: 14.2 µM
[27]; renal cancer
  Selectivity ratio (full panel MID^a / subpanel MID^b, GI50 level): 0.9
[28]; [32]
  GI50: 11.4 µM
[28]; breast cancer
  Selectivity ratio (full panel MID^a / subpanel MID^b, GI50 level): 1.13
